According to paper PMC5719402, “Protein-Structure Assisted Optimization of 4,5-Dihydroxypyrimidine-6-Carboxamide Inhibitors of Influenza Virus Endonuclease” (Scientific Reports, 2017):

These compounds were tested against wild type PAN protein (PA endonuclease domain) (Influenza A virus, UniProt C3W5S0) (assay: biochemical). Details: FP Ki.
Assay type: binding

Q: COCCNC(=O)c1nc([C@@H]2CCCN2C(=O)COc2ccccc2)[nH]c(=O)c1O [Compound 6e] was tested. Which Ki did it give?
A: 1600 nM

Q: O=C(NCCc1ccccc1)c1nc([C@@H]2CCCN2C(=O)c2cc(Cl)ncc2Cl)[nH]c(=O)c1O [Compound 7d] was tested. Which Ki did it give?
A: 100 ± 20 nM

Q: Which Ki does the source give for O=C(NCCc1ccccc1)c1nc([C@@H]2CCCN2C(=O)c2ccnc(Cl)c2)[nH]c(=O)c1O [Compound 7e] here?
A: 17500 ± 1100 nM

Q: For O=C(NCc1cccc(C(F)(F)F)c1)c1nc([C@@H]2CCCN2C(=O)c2c(Cl)cncc2Cl)[nH]c(=O)c1O [Compound 8a], which Ki is on record?
A: 160 ± 40 nM

Q: With Cn1c([C@@H]2CCCN2C(=O)c2c(Cl)cncc2Cl)nc(C(=O)NCCc2ccccc2)c(O)c1=O [Compound 8b] as the compound, how does the Ki read?
A: 70 ± 20 nM

Q: Which Ki does the source give for O=C(NCCc1cccc(C(F)(F)F)c1)c1nc([C@@H]2CCCN2C(=O)c2c(Cl)cncc2Cl)[nH]c(=O)c1O [Compound 8c] here?
A: 100 ± 30 nM

Q: How did the Ki turn out when O=C(NCCOc1ccccc1)c1nc([C@@H]2CCCN2C(=O)c2c(Cl)cncc2Cl)[nH]c(=O)c1O [Compound 8d] was run?
A: 50 ± 20 nM

Q: With Cn1c([C@@H]2CCCN2C(=O)c2c(Cl)cncc2Cl)nc(C(=O)NC2Cc3ccccc3C2)c(O)c1=O [Compound 8g] as the compound, how does the Ki read?
A: 1700 ± 100 nM

Q: Which Ki does the source give for O=C(NCC1Cc2ccccc2C1)c1nc([C@@H]2CCCN2C(=O)c2c(Cl)cncc2Cl)[nH]c(=O)c1O [Compound 8h] here?
A: 100 ± 30 nM

Q: With O=C(NCCc1ccccc1)c1nc([C@@H]2CCCN2C(=O)CCc2ccccc2Cl)[nH]c(=O)c1O [Compound 9a] as the compound, how does the Ki read?
A: 1200 ± 200 nM

Q: O=C(NCCc1ccccc1)c1nc([C@@H]2CCCN2C(=O)CCc2ccccc2F)[nH]c(=O)c1O [Compound 9c] was tested. Which Ki did it give?
A: 3700 ± 800 nM

Q: O=C(NCCOc1ccccc1)c1nc([C@@H]2CCCN2C(=O)CCc2ccccc2F)[nH]c(=O)c1O [Compound 9d] was tested. Which Ki did it give?
A: 500 ± 100 nM

Q: Which Ki does the source give for O=C(NCCc1ccccc1)c1nc([C@@H]2CCCN2C(=O)COc2ccccc2F)[nH]c(=O)c1O [Compound 9g] here?
A: 1300 ± 400 nM

Q: With O=C(NCCOc1ccccc1)c1nc([C@@H]2CCCN2C(=O)COc2ccccc2F)[nH]c(=O)c1O [Compound 9h] as the compound, how does the Ki read?
A: 440 ± 30 nM

Q: For O=C(NCCc1ccccc1)c1nc([C@@H]2CCCN2C(=O)CSc2ccccc2Cl)[nH]c(=O)c1O [Compound 9i], which Ki is on record?
A: 290 ± 40 nM

Q: Which Ki does the source give for O=C(NCCc1ccccc1)c1nc([C@@H]2CCCN2C(=O)C[S+]([O-])c2ccccc2Cl)[nH]c(=O)c1O (stereo partly shown) [Compound 9j] here?
A: 400 ± 70 nM

Q: How did the Ki turn out when O=C(NCCc1ccccc1)c1nc([C@@H]2CCCN2C(=O)CSc2ccccc2F)[nH]c(=O)c1O [Compound 9l] was run?
A: 1200 ± 100 nM

Q: O=C(NCCOc1ccccc1)c1nc([C@@H]2CCCN2C(=O)CSc2ccccc2F)[nH]c(=O)c1O [Compound 9m] was tested. Which Ki did it give?
A: 240 ± 30 nM

Q: How did the Ki turn out when O=C(NCCSc1ccccc1)c1nc([C@@H]2CCCN2C(=O)COc2ccccc2Cl)[nH]c(=O)c1O [Compound 10a] was run?
A: 560 ± 20 nM

Q: Which Ki does the source give for O=C(NCC[S+]([O-])c1ccccc1)c1nc([C@@H]2CCCN2C(=O)COc2ccccc2Cl)[nH]c(=O)c1O (stereo partly shown) [Compound 10c] here?
A: 200 ± 30 nM

Q: How did the Ki turn out when O=C(NCCS(=O)(=O)c1ccccc1)c1nc([C@@H]2CCCN2C(=O)COc2ccccc2Cl)[nH]c(=O)c1O [Compound 10d] was run?
A: 46 ± 1 nM

Q: COc1ccc(S(=O)(=O)CCNC(=O)c2nc([C@@H]3CCCN3C(=O)COc3ccccc3Cl)[nH]c(=O)c2O)cc1 [Compound 10f] was tested. Which Ki did it give?
A: 38 ± 9 nM

Q: Which Ki does the source give for O=C(NC1Cc2ccccc2C1)c1nc([C@@H]2CCCN2C(=O)COc2ccccc2Cl)[nH]c(=O)c1O [Compound 10h] here?
A: 470 ± 70 nM

Q: How did the Ki turn out when O=C(NCc1cc2ccccc2o1)c1nc([C@@H]2CCCN2C(=O)CSc2ccccc2Cl)[nH]c(=O)c1O [Compound 10l] was run?
A: 1000 ± 200 nM

Q: For O=C(NCCc1ccncc1)c1nc([C@@H]2CCCN2C(=O)COc2ccccc2F)[nH]c(=O)c1O [Compound 10n], which Ki is on record?
A: 256 ± 7 nM

Same assay, conditions: WT FP Ki

Q: For O=C(NCCOc1ccccc1)c1nc([C@@H]2CCCN2C(=O)COc2ccccc2Cl)[nH]c(=O)c1O [Compound 9f], which Ki is on record?
A: 500 ± 200 nM

Q: With O=C(NCCc1ccccn1)c1nc([C@@H]2CCCN2C(=O)COc2ccccc2F)[nH]c(=O)c1O [Compound 10m] as the compound, how does the Ki read?
A: 400 ± 200 nM

Same assay, conditions: read-out: WT FP Ki

Q: With O=C(O)C(=O)CC(=O)c1ccccc1 [DPBA, reference compound] as the compound, how does the Ki read?
A: 3700 ± 500 nM

What follows are compounds tested on influenza virus A/Puerto Rico/8/34 (H1N1) (assay: microbe, parasite or virus in culture). Details: H1N1, MDCK, read-out: plaque IC50.
Assay type: cell-based

Q: For O=C(NCCOc1ccccc1)c1nc([C@@H]2CCCN2C(=O)CCc2ccccc2Cl)[nH]c(=O)c1O [Compound 9b], which IC50 is on record?
A: 6600 nM

Q: Which IC50 does the source give for O=C(NCCOc1ccccc1)c1nc([C@@H]2CCCN2C(=O)CSc2ccccc2Cl)[nH]c(=O)c1O [Compound 9k] here?
A: 7200 nM

Q: For COc1ccc(S(=O)(=O)CCNC(=O)c2nc([C@@H]3CCCN3C(=O)CSc3ccccc3Cl)[nH]c(=O)c2O)cc1 [Compound 10g], which IC50 is on record?
A: 9100 nM
